Measured values as given in patent publication US11154522B2, “Compositions and methods for treating acne vulgaris” (priority 2016, dated 2021).
Like-named read-outs stand apart in the source and are kept apart here.

Assay: Delivery of succinic acid to epidermis and dermis in presence of salicylic acid, Franz diffusion cells, different skin sample (Example 2)
Protocol: Skin from a single donor was stored frozen at −20° C. until needed. The skin was removed from the freezer, allowed to equilibrate to room temperature, and then cut to ˜2 cm×2 cm pieces before testing. FDCs with a 3.3 ml receiver volume and 0.55 cm^2 diffusional area were used. De-aerated isotonic phosphate buffered saline solution at pH 7.4 (PBS) containing 0.01% NaN3 was used as a solvent system for the receptor well medium (“Receptor Fluid”). Receptor wells were filled with the Receptor Fluid. The upper flange of the FDC receptor well was coated with vacuum grease to ensure a complete seal. Pieces of skin were mounted on the receptor cells, the conventional donor wells applied, and the assembly clamped together with uniform pressure using a pinch clamp. After assembly of the FDC, the skin was allowed to hydrate for 20 minutes in contact with the receptor fluid. Any FDCs that evidenced any leakage during this period were discarded. The integrity and quality of the skin was tested prior to application of the test formulations through measurement of the transdermal flux of tritiated water. Skin pieces evidencing an excessively high tritiated water flux were discarded and the tritiated water fluxes of accepted skin pieces was used to guide the distribution of formulation samples over the skin piece set. After removal of the tritiated water samples from the donor wells, the clamp and donor wells were removed. The skin was tapped dry with a KimWipe® and the receptor well solutions was replenished with fresh receptor well medium. Six replicates of each of the formulations were examined, in a batch of 36 FDC's; each test formulation was applied at a quasi-infinite dose of 20 μL cm^2 on skin maintained at 32° C. throughout the experiment. The Receptor Fluid was stirred with a magnetic stir bar throughout. A sample was abstracted from each receptor well at each of 4, 8 and 20 h, the receptor well being replenished with fresh Receptor Fluid. The concentration of succinic acid in each receptor well sample was assayed by a verified LC-MS analytical method. At the end of the experiment (20 h), residual formulation was removed from the skin exterior with a pipette. The FDCs were then be disassembled and the skin washed twice with EtOH-Water 50-50 and wiped dry with a KimWipe®. The successive topmost layers of the stratum corneum were removed by three (3) times applying cellophane tape to the skin and then pulling off the tape. Tape strippings were discarded, the material present in those peripheral layers being considered absorbed only superficially. The epidermal and dermal layers were separated, using mild heating if required. The epidermal and dermal sections were placed into 4 ml glass vials. DMSO was used as an extraction solvent (“Extraction Solvent”) for succinic acid from epidermal and dermal tissue. Two ml of the Extraction Solvent was added to each vial and the vials allowed to incubate for 24 h. At the end of the extraction period, aliquots of the Extraction Solvent were drawn, filtered and analyzed by LC-MS.
A topical formulation was prepared that contained 2% succinic acid, 1% salicylic acid (acne API), 15% ethanol, 15% propylene glycol, 3% Brij 30 and 15% of dimethyl isosorbide. The delivery of succinic to epidermis and dermis was tested as described in Example 1 in an independent experiment, using a different skin sample.

## CCOCCOCCO [Transcutol P]
  enhancement of delivery of succinic acid by other penetration enhancing molecules: did not result in enhanced delivery of succinic acid

## O=C(O)CCC(=O)O [succinic acid]
human, 22 h, 2 %, pH 7.4
  succinic acid dose delivered to epidermis and dermis: 33.22%
human, 22 h, pH 7.4
  fold lower amount delivered in absence vs presence of Brij30 and dimethyl isosorbide: 4.4 fold
  succinic acid dose delivered to epidermis and dermis: 7.51%

## Capric tryiglyceride GTCC
  enhancement of delivery of succinic acid by other penetration enhancing molecules: did not result in enhanced delivery of succinic acid

## Polysorbate 20
Present in the formulation instead of Brij30 and dimethyl isosorbide
  enhancement of delivery of succinic acid by other penetration enhancing molecules: did not result in enhanced delivery of succinic acid

## Polysorbate 80
  enhancement of delivery of succinic acid by other penetration enhancing molecules: did not result in enhanced delivery of succinic acid
